Biological target: T1, MAGL (Homo sapiens, UniProt Q99685)
T1 sequence (Q99685 1-303): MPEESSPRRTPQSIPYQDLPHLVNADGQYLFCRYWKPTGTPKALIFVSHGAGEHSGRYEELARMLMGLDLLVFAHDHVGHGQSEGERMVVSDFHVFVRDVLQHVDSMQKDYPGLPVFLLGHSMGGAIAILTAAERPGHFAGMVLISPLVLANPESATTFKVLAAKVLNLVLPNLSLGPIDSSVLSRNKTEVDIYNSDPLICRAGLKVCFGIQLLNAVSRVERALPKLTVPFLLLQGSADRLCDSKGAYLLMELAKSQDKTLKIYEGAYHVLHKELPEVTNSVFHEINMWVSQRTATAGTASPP
Assay: 2-AG assay: MAGL inhibitory activity by hydrolysis of 2-arachidonoylglycerol to arachidonic acid, mass spectrometry
Assay type: biochemical
Settings: 2-AG assay (values marked [b])
Method in brief: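 Hydrolysis of 8 μM 2-arachidonoylglycerol by […] was run for 30 min at RT after a 15 min compound preincubation, in Tris/EDTA/Tween buffer. Test compounds spanned […]. The product was measured by online SPE-MS/MS (transitions 303.1→259.1 and 311.1→267.0), and activity was derived from the arachidonic acid/d8-arachidonic acid signal ratio.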

| IC50 | SMILES |
| --- | --- |
| 978 nM | Cc1cc(C(=O)N2CCN(c3nc4nc(Cl)ccc4o3)CC2)cnc1OC[C@H](F)CF [Example 172, (S)-(4-(5-chlorooxazolo[4,5-b]pyridin-2-yl)piperazin-1-yl)(6-(2,3-difluoropropoxy)-5-methylpyridin-3-yl)methanone] |
| 135 nM | Cc1cc(C(=O)N2CCN(c3nc4nc(Cl)ccc4o3)CC2)cnc1OCCC(F)(F)F [Example 173, (4-(5-chlorooxazolo[4,5-b]pyridin-2-yl)piperazin-1-yl)(5-methyl-6-(3,3,3-trifluoropropoxy)pyridin-3-yl)methanone] |
| 706 nM | Cc1cc(C(=O)N2CCN(c3nc4nc(Cl)ccc4o3)CC2)cnc1OC[C@@H](F)CF [Example 174, (R)-(4-(5-chlorooxazolo[4,5-b]pyridin-2-yl)piperazin-1-yl)(6-(2,3-difluoropropoxy)-5-methylpyridin-3-yl)methanone] |
| 46 nM | Cc1cc(C(=O)N2CCN(c3nc4nc(Cl)ccc4o3)CC2)cnc1-c1cnn(C(C)(C)C)c1 [Example 190, [6-(1-tert-butylpyrazol-4-yl)-5-methylpyridin-3-yl]-[4-(5-chloro-[1,3]oxazolo[4,5-b]pyridin-2-yl)piperazin-1-yl]methanone] |
| 98 nM | Cc1ccc2oc(N3CCN(C(=O)c4cnc(-c5cnn(C(C)(C)C)c5)c(C)c4)CC3)nc2n1 [Example 191, [6-(1-tert-butylpyrazol-4-yl)-5-methylpyridin-3-yl]-[4-(5-methyl-[1,3]oxazolo[4,5-b]pyridin-2-yl)piperazin-1-yl]methanone] |
| 4 nM | Cc1cc(C(=O)N2CCN(c3nc4nc(Cl)ccc4o3)CC2)ccc1-c1cn(CC(C)(C)C)nn1 [Example 231, (4-(5-chlorooxazolo[4,5-b]pyridin-2-yl)piperazin-1-yl)(3-methyl-4-(1-neopentyl-1H-1,2,3-triazol-4-yl)phenyl)methanone] |
| 1 nM | Cc1cc(C(=O)N2CCN(c3nc4nc(Cl)ccc4o3)CC2)ccc1-c1cnn(CC(C)(C)C)n1 [Example 232, (4-(5-chlorooxazolo[4,5-b]pyridin-2-yl)piperazin-1-yl)(3-methyl-4-(2-neopentyl-2H-1,2,3-triazol-4-yl)phenyl)methanone] |
| 20 nM | CC(C)(C)Cn1cc(-c2ccc(C(=O)N3CCN(c4nc5nc(Cl)ccc5o4)CC3)cc2C#N)nn1 [Example 233, 5-(4-(5-chlorooxazolo[4,5-b]pyridin-2-yl)piperazine-1-carbonyl)-2-(1-neopentyl-1H-1,2,3-triazol-4-yl)benzonitrile] |
| 10 nM | CC(C)(C)Cn1ncc(-c2ccc(C(=O)N3CCN(c4nc5nc(Cl)ccc5o4)CC3)cc2C#N)n1 [Example 234, 5-(4-(5-chlorooxazolo[4,5-b]pyridin-2-yl)piperazine-1-carbonyl)-2-(2-neopentyl-2H-1,2,3-triazol-4-yl)benzonitrile] |
| 104 nM | Cc1ccc2oc(N3CCN(C(=O)c4ccc(-c5cn(CC(C)(C)C)nn5)c(C#N)c4)CC3)nc2n1 [Example 235, 5-(4-(5-methyloxazolo[4,5-b]pyridin-2-yl)piperazine-1-carbonyl)-2-(1-neopentyl-1H-1,2,3-triazol-4-yl)benzonitrile] |
| 33 nM | Cc1ccc2oc(N3CCN(C(=O)c4ccc(-c5cnn(CC(C)(C)C)n5)c(C#N)c4)CC3)nc2n1 [Example 236, 5-(4-(5-methyloxazolo[4,5-b]pyridin-2-yl)piperazine-1-carbonyl)-2-(2-neopentyl-2H-1,2,3-triazol-4-yl)benzonitrile] |
| 7 nM | COc1cc(C(=O)N2CCN(c3nc4nc(Cl)ccc4o3)CC2)ccc1-c1cn(CC(C)(C)C)nn1 [Example 237, (4-(5-chlorooxazolo[4,5-b]pyridin-2-yl)piperazin-1-yl)(3-methoxy-4-(1-neopentyl-1H-1,2,3-triazol-4-yl)phenyl)methanone] |
| 1 nM | COc1cc(C(=O)N2CCN(c3nc4nc(Cl)ccc4o3)CC2)ccc1-c1cnn(CC(C)(C)C)n1 [Example 238, (4-(5-chlorooxazolo[4,5-b]pyridin-2-yl)piperazin-1-yl)(3-methoxy-4-(2-neopentyl-2H-1,2,3-triazol-4-yl)phenyl)methanone] |
| 13 nM | COc1cc(C(=O)N2CCN(c3nc4nc(C)ccc4o3)CC2)ccc1-c1cn(CC(C)(C)C)nn1 [Example 239, (3-methoxy-4-(1-neopentyl-1H-1,2,3-triazol-4-yl)phenyl)(4-(5-methyloxazolo[4,5-b]pyridin-2-yl)piperazin-1-yl)methanone] |
| 2 nM | COc1cc(C(=O)N2CCN(c3nc4nc(C)ccc4o3)CC2)ccc1-c1cnn(CC(C)(C)C)n1 [Example 240, (3-methoxy-4-(2-neopentyl-2H-1,2,3-triazol-4-yl)phenyl)(4-(5-methyloxazolo[4,5-b]pyridin-2-yl)piperazin-1-yl)methanone] |
| 27 nM | CC(C)(C)Cn1cc(-c2ncc(C(=O)N3CCN(c4nc5nc(Cl)ccc5o4)CC3)cc2F)nn1 [Example 241, (4-(5-chlorooxazolo[4,5-b]pyridin-2-yl)piperazin-1-yl)(5-fluoro-6-(1-neopentyl-1H-1,2,3-triazol-4-yl)pyridin-3-yl)methanone] |
| 8410 nM | CC(C)(C)Cn1nncc1-c1ncc(C(=O)N2CCN(c3nc4nc(Cl)ccc4o3)CC2)cc1F [Example 242, (4-(5-chlorooxazolo[4,5-b]pyridin-2-yl)piperazin-1-yl)(5-fluoro-6-(1-neopentyl-1H-1,2,3-triazol-5-yl)pyridin-3-yl)methanone] |
| 25 nM | CC(C)(C)Cn1ncc(-c2ncc(C(=O)N3CCN(c4nc5nc(Cl)ccc5o4)CC3)cc2F)n1 [Example 243, (4-(5-chlorooxazolo[4,5-b]pyridin-2-yl)piperazin-1-yl)(5-fluoro-6-(2-neopentyl-2H-1,2,3-triazol-4-yl)pyridin-3-yl)methanone] |
| 50 nM | Cc1ccc2oc(N3CCN(C(=O)c4cnc(-c5cn(CC(C)(C)C)nn5)c(F)c4)CC3)nc2n1 [Example 244, (5-fluoro-6-(1-neopentyl-1H-1,2,3-triazol-4-yl)pyridin-3-yl)(4-(5-methyloxazolo[4,5-b]pyridin-2-yl)piperazin-1-yl)methanone] |
| 57 nM | Cc1ccc2oc(N3CCN(C(=O)c4cnc(-c5cnn(CC(C)(C)C)n5)c(F)c4)CC3)nc2n1 [Example 245, (5-fluoro-6-(2-neopentyl-2H-1,2,3-triazol-4-yl)pyridin-3-yl)(4-(5-methyloxazolo[4,5-b]pyridin-2-yl)piperazin-1-yl)methanone] |
| 1300 nM | Cc1ccc2oc(N3CCN(C(=O)c4cnc(-c5cnnn5CC(C)(C)C)c(F)c4)CC3)nc2n1 [Example 246, (5-fluoro-6-(1-neopentyl-1H-1,2,3-triazol-5-yl)pyridin-3-yl)(4-(5-methyloxazolo[4,5-b]pyridin-2-yl)piperazin-1-yl)methanone] |
| 7 nM | Cc1cc(C(=O)N2CCN(c3nc4nc(Cl)ccc4o3)CC2)cnc1-c1cnn(CC(C)(C)C)c1 [Example 247, [4-(5-chloro-[1,3]oxazolo[4,5-b]pyridin-2-yl)piperazin-1-yl]-[6-[1-(2,2-dimethylpropyl)pyrazol-4-yl]-5-methylpyridin-3-yl]methanone] |
| 14 nM | Cc1ccc2oc(N3CCN(C(=O)c4cnc(-c5cnn(CC(C)(C)C)c5)c(C)c4)CC3)nc2n1 [Example 248, [6-[1-(2,2-dimethylpropyl)pyrazol-4-yl]-5-methylpyridin-3-yl]-[4-(5-methyl-[1,3]oxazolo[4,5-b]pyridin-2-yl)piperazin-1-yl]methanone] |
| 22 nM | O=C(N1CCN(c2nc3nc(Cl)ccc3o2)CC1)N1CC(C#Cc2c(Cl)cccc2Cl)C1 [Example 249, (4-(5-chlorooxazolo[4,5-b]pyridin-2-yl)piperazin-1-yl)(3-((2,6-dichlorophenyl)ethynyl)azetidin-1-yl)methanone] |
| 25 nM | O=C(N1CCN(c2nc3nc(Cl)ccc3o2)CC1)N1CC(C#Cc2ccc(F)cc2Cl)C1 [Example 250, [3-[2-(2-chloro-4-fluorophenyl)ethynyl]azetidin-1-yl]-[4-(5-chloro-[1,3]oxazolo[4,5-b]pyridin-2-yl)piperazin-1-yl]methanone] |
| 1240 nM | Cc1ccc2oc(N3CCN(C(=O)N4CC(COc5ccc(F)cc5Cl)C4)CC3)nc2n1 [Example 252, [3-[(2-chloro-4-fluorophenoxy)methyl]azetidin-1-yl]-[4-(5-methyl-[1,3]oxazolo[4,5-b]pyridin-2-yl)piperazin-1-yl]methanone] |
| ≥ 12500 nM | O=C(NC1CN(C(=O)N2CCN(c3nc4nc(Cl)ccc4o3)CC2)C1)c1ccc(F)cc1Cl [Example 253, 2-chloro-N-[1-[4-(5-chloro-[1,3]oxazolo[4,5-b]pyridin-2-yl)piperazine-1-carbonyl]azetidin-3-yl]-4-fluorobenzamide] |
| ≥ 12500 nM | Cc1ccc2oc(N3CCN(C(=O)N4CC(NC(=O)c5ccc(F)cc5Cl)C4)CC3)nc2n1 [Example 254, 2-chloro-4-fluoro-N-[1-[4-(5-methyl-[1,3]oxazolo[4,5-b]pyridin-2-yl)piperazine-1-carbonyl]azetidin-3-yl]benzamide] |
| ≥ 12500 nM | O=C(Nc1ccc(F)cc1Cl)C1CN(C(=O)N2CCN(c3nc4nc(Cl)ccc4o3)CC2)C1 [Example 255, N-(2-chloro-4-fluorophenyl)-1-[4-(5-chloro-[1,3]oxazolo[4,5-b]pyridin-2-yl)piperazine-1-carbonyl]azetidine-3-carboxamide] |
| ≥ 12500 nM | Cc1ccc2oc(N3CCN(C(=O)N4CC(C(=O)Nc5ccc(F)cc5Cl)C4)CC3)nc2n1 [Example 256, N-(2-chloro-4-fluorophenyl)-1-[4-(5-methyl-[1,3]oxazolo[4,5-b]pyridin-2-yl)piperazine-1-carbonyl]azetidine-3-carboxamide] |
